“Also recorded” adds a separate entry of the source. Like-named read-outs stand apart in the source and are kept apart here.
Legend:
[1] = system: ABH2; set-up: method as in PMID 21460794; conditions: read-out: Km^app(2OG); cited from earlier work
[2] = molecular target: T1, KDM5B (Homo sapiens, UniProt Q9UGL1); conditions: FDH-coupled assay, truncated KDM5B, cited from earlier work
T1 construct: purified recombinant KDM5B (produced in Sf9 insect cells, M1-R822); made in house; host or cells: Sf9 insect cells
T1 sequence (Q9UGL1 1-822): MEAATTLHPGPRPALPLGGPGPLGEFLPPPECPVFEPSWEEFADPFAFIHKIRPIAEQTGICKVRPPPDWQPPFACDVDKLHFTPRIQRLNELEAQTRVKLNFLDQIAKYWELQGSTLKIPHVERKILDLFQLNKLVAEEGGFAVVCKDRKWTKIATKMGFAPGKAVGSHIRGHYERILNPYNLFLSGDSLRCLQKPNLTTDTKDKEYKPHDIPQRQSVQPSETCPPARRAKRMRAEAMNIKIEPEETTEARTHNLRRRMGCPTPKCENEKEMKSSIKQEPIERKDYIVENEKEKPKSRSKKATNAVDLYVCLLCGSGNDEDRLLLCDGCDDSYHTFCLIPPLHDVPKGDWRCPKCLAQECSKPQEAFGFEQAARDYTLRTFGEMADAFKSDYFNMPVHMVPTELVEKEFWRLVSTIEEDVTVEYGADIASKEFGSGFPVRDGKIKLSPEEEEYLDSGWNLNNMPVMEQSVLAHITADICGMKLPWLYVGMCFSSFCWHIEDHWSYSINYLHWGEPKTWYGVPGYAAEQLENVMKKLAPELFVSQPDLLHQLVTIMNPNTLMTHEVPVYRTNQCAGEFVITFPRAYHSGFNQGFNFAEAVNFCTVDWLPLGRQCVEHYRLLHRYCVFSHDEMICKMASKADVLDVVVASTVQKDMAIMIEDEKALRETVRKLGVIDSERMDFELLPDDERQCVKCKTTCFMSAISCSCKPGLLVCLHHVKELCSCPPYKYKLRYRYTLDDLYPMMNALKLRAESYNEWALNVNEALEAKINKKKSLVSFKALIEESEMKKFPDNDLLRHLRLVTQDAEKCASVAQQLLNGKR

[3] = system: KDM2A; set-up: method as in PMID 21460794; conditions: cited from earlier work; for IC50: enzyme concentration 2 μM
[4] = system: TET1; conditions: cited from earlier work
[5] = system: TET2; conditions: cited from earlier work
[6] = system: BBOX; conditions: cited from earlier work; for IC50: enzyme concentration 0.025 μM
[7] = system: KDM4C; set-up: method as in PMID 21460794; conditions: read-out: Km^app(2OG); cited from earlier work
[8] = system: FIH; conditions: cited from earlier work
[9] = system: KDM4E; conditions: cited from earlier work; for IC50: enzyme concentration 2 μM
[10] = system: KDM4A; set-up: method as in PMID 21460794; conditions: read-out: Km^app(2OG); cited from earlier work
[11] = system: PHD2; conditions: cited from earlier work
[12] = molecular target: T1, KDM5B; experiment: KDM5B inhibition assay, MALDI-TOF-MS (IC50); assay type: biochemical
[13] = system: isolated KDM5B; set-up: method as in PMID 28262558; conditions: AlphaScreen assay; cited from earlier work
[14] = system: T2, over-expressed KDM5B in U2-OS cells; experiment: Immunofluorescence assay of H3K4me3 demethylation in U2-OS cells overexpressing KDM5B; assay type: cell-based, human; conditions: for inhibition of KDM5B-mediated H3K4me3 demethylation (IF): U2-OS cells overexpressing Flag-tagged WT KDM5B, 24 h treatment, esters dosed up to 5–10 mM
T2 construct: expressed in transfected cells; host or cells: U2-OS osteosarcoma cells, transient transfection with pCDNA5-FRT-TO-3FLAG vector
Experimental: EC50 curves for cells overexpressing Flag-tagged KDM5B. […] Results for dimethyl-2OG (a), dimethyl-succinate (b), dimethyl-D-2HG (c), dimethyl-L-2HG (d), octyl-D-2HG (e), octyl-L-2HG (f), and KDOAM-25 (g). Dashed lines represent IF levels in non-inhibitor controls.
The cellular effects of dimethyl ester precursors of TCA cycle-related metabolites as potential inhibitors of H3K4me3 demethylation were then assessed. We used an established immunofluorescence (IF) procedure with ectopically overexpressed wild-type KDM5B (WT KDM5B) in U2-OS cells and anti-H3K4me3 antibody monitoring for changes in H3K4me3 methylation levels. […] Cells with overexpressed KDM5B were treated with different concentrations of the TCA cycle-related pro-drug esters (previously established as cell permeable in other cell-based studies), [51], [52], [53], [54] for 24 h, the H3K4me3 levels were then analyzed in the transfected cells. The reported KDM5B inhibitor KDOAM-25 ((2)-((((2)-(((2)-(dimethylamino)ethyl)(ethyl)amino)-(2)-oxoethyl)amino)methyl)isonicotinamide) was used as a positive control for inhibition, [55].
Immunofluorescent cell-based assays were performed as reported. The human U2-OS osteosarcoma cells were cultured as a monolayer in Dulbecco's modified Eagle's medium (Invitrogen) supplemented with 10% heat-inactivated fetal bovine serum (Life Technologies) and 1% Glutamax. […] Cells were transiently transfected using cDNA and Lipofectamine 3000 (Life Technologies). Four hours after transfection, the cells were subjected to treatment with serial dilutions of compound. After 24 h, the cells were fixed with 4% formaldehyde and stained with anti-Flag antibody (Sigma F3165), an anti-methylated histone antibody (H3K4me3 DiagenodeC15410003). The cells were then stained with secondary antibodies [Alexa Fluor 488 and Alexa Fluor 568-labeled (Life Technologies)] and 4’,6-diamidino-2-phenylindole. Image acquisition was conducted using Operetta High Content Imaging System (PerkinElmer), and image analysis was performed using the Columbus software (PerkinElmer). A minimum threshold for anti-Flag intensity was set to ensure that only cells highly producing the demethylase were analyzed.

[15] = molecular target: T1, KDM5B; experiment: KDM5B kinetic assays, MALDI-TOF-MS (Km, Ki with respect to 2OG); assay type: biochemical; conditions: for mode of inhibition: with respect to 2OG
[16] = system: U2-OS cells; experiment: Toxicity to U2-OS cells in the cellular assay; assay type: cell-based, human; conditions: data not shown
[17] = 0.6 μM KDM5B, 3 μM 2OG, 5 μM H3K4me2(1–21), 10 μM Fe(II), 500 μM L-ascorbate, pH 7.5, errors 95% confidence intervals

Molecule: O=C(O)CCC(=O)C(=O)O [2OG, 2-oxoglutarate]
- Km [1]: 10 µM
- Km ([2]; read-out: Km^app(2OG)): 6 µM
- Km ([3]; read-out: Km^app(2OG)): 12.5 µM
- Km ([4]; read-out: Km^app(2OG)): 55 ± 20 µM
- Km ([5]; read-out: Km^app(2OG)): 60 ± 15 µM
- Km ([6]; read-out: Km^app(2OG)): 470 µM
- Km [7]: 4 µM
- Km ([8]; read-out: Km^app(2OG)): 110 ± 20 µM
- Km ([9]; read-out: Km^app(2OG)): 13.2 µM
- Km [10]: 6 µM
- Km ([11]; read-out: Km^app(2OG)): 13 ± 2 µM

Molecule: O=C(O)CC(O)(CC(=O)O)C(=O)O [Citrate]
- IC50 [12, 17]: Inactive
- IC50 ([12]; read-out: IC50): > 1000 µM
- inhibition at 1000 µM ([12]; read-out: inhibition at 1 mM): 18%

Molecule: O=C(O)CC[C@@H](O)C(=O)O [D-2HG, D-2-hydroxyglutarate]
- IC50 [3]: 106 ± 22 µM
- IC50 [5]: 5000 µM
- IC50 [6]: 13200 µM

Molecule: O=C(O)/C=C/C(=O)O [Fumarate]
- IC50 [4]: 390 ± 160 µM
- IC50 [5]: 400 ± 70 µM
- IC50 [12]: 210 ± 80 µM
- IC50 [8]: > 1000 µM
- IC50 [9]: 2.3 µM
- IC50 [11]: 3 µM

Molecule: CCN(CCN(C)C)C(=O)CNCc1cc(C(N)=O)ccn1 [KDOAM-25, (2)-((((2)-(((2)-(dimethylamino)ethyl)(ethyl)amino)-(2)-oxoethyl)amino)methyl)isonicotinamide]
- IC50 [13]: 0.019 µM
- inhibition of KDM5B-mediated H3K4me3 demethylation (IF) [14]: manifested the expected levels of inhibition; also recorded: observe inhibition
- compound concentration at which H3K4me3 fluorescence reaches levels of KDM5B Mut ([14]; U2-OS cells overexpressing WT KDM5B, 24 h): 1 mM

Molecule: O=C(O)CC[C@H](O)C(=O)O [L-2HG, L-2-hydroxyglutarate]
- IC50 [3]: 48 ± 15 µM
- IC50 [4]: 1000 µM
- IC50 [5]: 1600 µM
- IC50 [6]: 142 ± 30 µM
- IC50 ([8]; enzyme concentration 1 μM): 189 ± 34 µM

Molecule: O=C(O)CC(O)C(=O)O (centres unmarked) [Malate, malate]
- IC50 ([12]; read-out: IC50): 127 ± 72 µM

Molecule: O=C(O)CC(=O)C(=O)O [Oxaloacetate]
- Vm^app ([15]; in presence of 15 μM oxaloacetate): 0.0066 µM/s
- Vm^app ([15]; in presence of 50 μM oxaloacetate): 0.0070 µM/s
- Vm^app ([15]; in presence of 100 μM oxaloacetate): 0.0069 µM/s
- mode of inhibition [15]: 2OG competitive manner
- IC50 ([12]; read-out: IC50): 15 ± 10 µM

Molecule: CC(=O)C(=O)O [Pyruvate, pyruvate]
- IC50 [12, 17]: very weak KDM5B inhibitor
- IC50 ([12]; read-out: IC50): 703 ± 26 µM

Molecule: O=C(O)CCC(=O)O [Succinate, succinate]
- Ki ([15]; competitive inhibition model, shared/global fit, read-out: Ki (best-fit value, GraphPad Prism global fit)): 26.8 µM
- Vm^app ([15]; in presence of 30 μM succinate): 0.0044 µM/s
- Vm^app ([15]; in presence of 100 μM succinate): 0.0046 µM/s
- Vm^app ([15]; in presence of 300 μM succinate): 0.0046 µM/s
- mode of inhibition [15]: 2OG competitive manner
- IC50 [4]: 540 ± 100 µM
- IC50 [5]: 570 ± 190 µM
- IC50 ([12]; read-out: IC50): 62 ± 19 µM
- IC50 [8]: > 1000 µM
- IC50 [9]: 320 µM
- IC50 [11]: 19 µM

Molecule: COC(=O)CCC(=O)C(=O)OC [dimethyl-2OG, Dimethyl-2-oxoglutarate]
- inhibition of KDM5B-mediated H3K4me3 demethylation (IF) [14]: do not inhibit; also recorded: no inhibition of KDM5B activity was observed
- change in H3K4me3 levels / KDM5B activity in response to compound ([14]; U2-OS cells overexpressing KDM5B, increasing concentrations, 24 h): No decrease in the H3K4me3 levels was observed; also recorded: did not show any effect

Molecule: COC(=O)CC[C@@H](O)C(=O)OC [dimethyl-D-2HG]
- inhibition of KDM5B-mediated H3K4me3 demethylation (IF) [14]: do not inhibit; also recorded: no inhibition of KDM5B activity was observed

Molecule: COC(=O)CC[C@H](O)C(=O)OC [dimethyl-L-2HG]
- inhibition of KDM5B-mediated H3K4me3 demethylation (IF) [14]: do not inhibit; also recorded: no inhibition of KDM5B activity was observed

Molecule: COC(=O)CCC(=O)OC [dimethyl-succinate, dimethylsuccinate]
- inhibition of KDM5B-mediated H3K4me3 demethylation (IF) [14]: do not inhibit

Molecule: COC(=O)/C=C/C(=O)OC [dimethylfumarate]
- toxic concentration [16]: higher than 400 μM
- inhibition of KDM5B-mediated H3K4me3 demethylation (IF) [14]: no inhibition of KDM5B activity was observed
- inhibition of KDM5B-mediated H3K4me3 demethylation (IF) ([14]; listed as Dimethylfumarate): did not show any inhibition at lower concentrations

Molecule: CCCCCCCCOC(=O)[C@H](O)CCC(=O)O [octyl-D-2HG]
- inhibition of KDM5B-mediated H3K4me3 demethylation (IF) [14]: do not inhibit; also recorded: no inhibition of KDM5B activity was observed

Molecule: CCCCCCCCOC(=O)[C@@H](O)CCC(=O)O [octyl-L-2HG]
- inhibition of KDM5B-mediated H3K4me3 demethylation (IF) [14]: do not inhibit; also recorded: no inhibition of KDM5B activity was observed

Molecule: H3K4me2(1–21): 21-mer histone H3 peptide fragment dimethylated at lysine-4, KDM5B substrate [reference compound]
- Km ([15]; KDM5B(1–822), 10 μM 2OG, read-out: Km^app(H3K4me2(1–21))): ~0.5 µM
- Km ([2]; read-out: Km^app for H3K4me2(1–21)): 0.85 µM
